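1) Cells in 96-well plates. 2) Compound, 48 h, 5 concentrations. 3) Linear interpolation between surrounding doses. 4) Unreached endpoint = highest concentration. TGI marks complete inhibition of growth.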
What was measured:
Assay in all cases: DTP human tumour cell line panel, 48 h
[1] = tested on: NCI/ADR-RES ovarian
[2] = tested on: MDA-MB-435
[3] = tested on: CAKI-1 renal
[4] = tested on: HCT-116 colon
[5] = tested on: MALME-3M melanoma
[6] = tested on: MCF7 breast
[7] = tested on: OVCAR-3 ovarian
[8] = tested on: SNB-19 CNS
[9] = tested on: NCI-H226 lung
[10] = tested on: RPMI-8226 leukemia
[11] = tested on: HCT-15 colon
[12] = tested on: MDA-MB-231 breast
[13] = tested on: SF-268 CNS
[14] = tested on: SF-295 CNS
[15] = tested on: SNB-75 CNS
[16] = tested on: HL-60(TB) leukemia
[17] = tested on: A498 renal
[18] = tested on: MDA-N
[19] = tested on: ACHN renal
[20] = tested on: NCI-H522 lung
[21] = tested on: K-562 leukemia
[22] = tested on: SK-OV-3 ovarian
[23] = tested on: DU-145 prostate
[24] = tested on: UACC-62 melanoma
[25] = tested on: OVCAR-8 ovarian
[26] = tested on: CCRF-CEM leukemia
[27] = tested on: BT-549 breast
[28] = tested on: MOLT-4 leukemia
[29] = tested on: SR leukemia
[30] = tested on: OVCAR-5 ovarian
[31] = tested on: TK-10 renal
[32] = tested on: SN12C renal
[33] = tested on: UACC-257 melanoma
[34] = tested on: KM12 colon
[35] = tested on: IGROV1 ovarian
[36] = tested on: SW-620 colon
[37] = tested on: HOP-92 NSCLC
[38] = tested on: SF-539 CNS
[39] = tested on: SK-MEL-2 melanoma
[40] = tested on: HT29 colon
[41] = tested on: NCI-H23 lung
[42] = tested on: SK-MEL-5 melanoma
[43] = tested on: HOP-62 NSCLC
[44] = tested on: M14 melanoma
[45] = tested on: 786-0 renal
[46] = tested on: LOX IMVI melanoma
[47] = tested on: COLO 205 colon
[48] = tested on: A549 NSCLC
[49] = tested on: T-47D breast
[50] = tested on: UO-31 renal
[51] = tested on: EKVX NSCLC
[52] = tested on: HS 578T breast
[53] = tested on: RXF 393 renal
[54] = tested on: HCC-2998 colon
[55] = tested on: PC-3 prostate
[56] = tested on: U251 CNS
[57] = tested on: SK-MEL-28 melanoma
[58] = tested on: NCI-H460 lung
[59] = tested on: OVCAR-4 ovarian

NC(=O)Cc1ncn(-c2ccccc2)n1
TGI [1]: > 100 µM
TGI [2]: > 100 µM
TGI [3]: > 100 µM
TGI [4]: > 100 µM
TGI [5]: > 100 µM
TGI [6]: > 100 µM
TGI [7]: > 100 µM
TGI [8]: > 100 µM
TGI [9]: > 100 µM
TGI [10]: > 100 µM
TGI [11]: > 100 µM
TGI [12]: > 100 µM
TGI [13]: > 100 µM
TGI [14]: > 100 µM
TGI [15]: > 100 µM
TGI [16]: > 100 µM
TGI [17]: > 100 µM
TGI [18]: > 100 µM
TGI [19]: > 100 µM
TGI [20]: > 100 µM
TGI [21]: > 100 µM
TGI [22]: > 100 µM
TGI [23]: > 100 µM
TGI [24]: > 100 µM
TGI [25]: > 100 µM
TGI [26]: > 100 µM
TGI [27]: > 100 µM
TGI [28]: > 100 µM
TGI [29]: > 100 µM
TGI [30]: > 100 µM
TGI [31]: > 100 µM
TGI [32]: > 100 µM
TGI [33]: > 100 µM
TGI [34]: > 100 µM
TGI [35]: > 100 µM
TGI [36]: > 100 µM
TGI [37]: > 100 µM
TGI [38]: > 100 µM
TGI [39]: > 100 µM
TGI [40]: > 100 µM
TGI [41]: > 100 µM
TGI [42]: > 100 µM
TGI [43]: > 100 µM
TGI [44]: > 100 µM
TGI [45]: > 100 µM
TGI [46]: > 100 µM
TGI [47]: > 100 µM
TGI [48]: > 100 µM
TGI [49]: > 100 µM
TGI [50]: > 100 µM
TGI [51]: > 100 µM
TGI [52]: > 100 µM
TGI [53]: > 100 µM

CC/C(Cl)=N\OC(=O)Nc1ccccc1OC(F)(F)F
TGI [1]: 35.5 µM
TGI [2]: 40.7 µM
TGI [3]: 3.33 µM
TGI [54]: 37.8 µM
TGI [4]: 27 µM
TGI [5]: 17.6 µM
TGI [6]: > 51.3 µM
TGI [7]: 22.2 µM
TGI [8]: 53.9 µM
TGI [9]: 38.1 µM
TGI [10]: 4.12 µM
TGI [11]: > 24.2 µM
TGI [55]: 33.5 µM
TGI [12]: 34.2 µM
TGI [13]: > 57.8 µM
TGI [14]: 33.5 µM
TGI [15]: 48.2 µM
TGI [16]: 3.6 µM
TGI [17]: 45.4 µM
TGI [18]: 22.9 µM
TGI [19]: 3.69 µM
TGI [56]: > 57.8 µM
TGI [20]: 2.9 µM
TGI [21]: 4.55 µM
TGI [22]: 37.3 µM
TGI [23]: 33.9 µM
TGI [24]: 37.1 µM
TGI [25]: 35.9 µM
TGI [26]: 3.42 µM
TGI [27]: 11.5 µM
TGI [28]: 4.77 µM
TGI [30]: 36.9 µM
TGI [31]: 23.8 µM
TGI [57]: 41.5 µM
TGI [32]: 14.2 µM
TGI [58]: 44.2 µM
TGI [33]: 32.8 µM
TGI [34]: 41.6 µM
TGI [35]: 30.8 µM
TGI [37]: 6.15 µM
TGI [38]: 31 µM
TGI [39]: 32.8 µM
TGI [40]: 44.4 µM
TGI [41]: 45.8 µM
TGI [42]: 22.1 µM
TGI [43]: 37.3 µM
TGI [44]: 23.3 µM
TGI [45]: 23.5 µM
TGI [46]: 5.65 µM
TGI [59]: 41.6 µM
TGI [47]: 3.79 µM
TGI [48]: 51.5 µM
TGI [49]: 14.4 µM
TGI [50]: 18.2 µM
TGI [51]: 15.9 µM
TGI [52]: > 68.2 µM
TGI [53]: 32.6 µM

Reference: PubChem BioAssay (NCI)
